Data as given in US20130210752A1, “USING A NOVEL HIGH-THROUGHPUT YEAST CELL-BASED SCREENING PLATFORM TO IDENTIFY HMG-COA REDUCTASE INHIBITORS FROM NATURAL PRODUCTS AND THE USES OF SUCH INHIBITORS THEREOF” (HONG KONG BAPTIST UNIVERSITY, priority 2012, published 2013).

Columns and labels:
[1] = tested on: yeast cells lacking HMG1 and HMG2 with HMG1 overexpression plasmid (HMG-CoAR); experiment: Yeast HMG-CoAR screening assay (yeast cell growth, OD660, with or without mevalonate); format: cell-based, Saccharomyces cerevisiae; settings: for restoration of growth / reduction of inhibitory effect in the presence of mevalonate (compounds from Fraction 7): 300 μg/ml (7E1: 150 μg/ml), with mevalonate; for growth inhibition in the yeast cells: without mevalonate
Source text: The present invention provides a screening method to identify potential HMG-CoAR inhibitors. The present method comprises providing a yeast strain which lacks HMG1 and HMG2 genes but containing a HMG1 overexpression plasmid, contacting said yeast strain with a test material. If the test material can inhibit the HMG1 activity or expression, the yeast cells will die. In order to validate the death of yeast cells is due to inhibition of HMG1 by the test material, the present invention also includes adding mevalonate compound, which is a downstream product of the HMG-CoAR. HMG-CoAR inhibitory activity of the test material is confirmed if the cell viability of the yeast strain is unaffected by the test material in the presence of mevalonate.
Saccharomyces cerevisiae (MATa ade2-101 his3-200 hmg1::LYS2 hmg2:his3 lys2-80 met TRP1 ura3-52 with overexpression of yeast HMG1 containing plasmid) were used in the screening assay. Cells were grown at 30° C. in YEPD, consisting of 10 g/L yeast extract, 20 g/L Bacto-peptone and 20 g/L dextrose.
Yeast cells were grown overnight in YEPD medium to ^˜7.0 OD660 at 30° C. Cells were then subculture to a fresh YEPD medium with starting ^˜0.1 starting OD660 and grew for another 8 hours to ^˜1.2 OD660. The assay was performed in a 96-well plate. 2.7×10^4 cells, tested drugs/chemicals and/or mevalonate were added to each well in a final volume of 100 μl. All experiments were performed in triplicate. Cells were then grown for 16 hours at 30° C. and the inhibitory effect of HMG-CoAR determined by measuring the cell density OD660 of each well by a micro-plate reader. Statin was used as a positive control and mevalonate supplement was used to validate the inhibitory effect of tested compounds on HMG-CoAR.

HMG-CoAR = molecular target: T1, HMG-CoAR (Homo sapiens, UniProt P04035); experiment: In vitro HMG-CoAR activity assay (commercial kit, Sigma; NADPH oxidation at 340 nm); format: biochemical; settings: 60 μg/ml
T1 construct: the oxidation of NADPH by the catalytic subunit of HMGR in the presence of the substrate of HMG-CoA; purchased Sigma, USA
T1 sequence (P04035 426-888 limits assumed): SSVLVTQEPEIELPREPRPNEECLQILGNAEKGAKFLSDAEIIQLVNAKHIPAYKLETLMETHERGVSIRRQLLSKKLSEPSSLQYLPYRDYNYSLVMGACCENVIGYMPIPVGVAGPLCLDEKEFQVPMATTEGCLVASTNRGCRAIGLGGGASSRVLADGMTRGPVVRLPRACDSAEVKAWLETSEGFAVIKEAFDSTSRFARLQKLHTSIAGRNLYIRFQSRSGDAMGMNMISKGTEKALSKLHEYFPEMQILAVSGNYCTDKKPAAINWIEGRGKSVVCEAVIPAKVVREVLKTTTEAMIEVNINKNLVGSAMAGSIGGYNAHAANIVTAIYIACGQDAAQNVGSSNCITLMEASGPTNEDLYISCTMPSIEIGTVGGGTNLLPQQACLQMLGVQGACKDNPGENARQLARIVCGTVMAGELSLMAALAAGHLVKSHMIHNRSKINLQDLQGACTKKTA
Experimental: Commercial HMG-CoAR activity assay kit (Sigma, USA) is used in this experiment. The HMG-CoAR activity assay is based on the spectrophotometric measurement of the decrease in absorbance at 340 nm, which represents the oxidation of NADPH by the catalytic subunit of HMGR in the presence of the substrate of HMG-CoA. Pravastatin (Positive control), 7E1 or 7E2 are tested in this assay.
The HMG-CoAR activity was determined by the commercially available in vitro assay kit (Sigma, USA). The protocol of the assay was performed as described in the manufacture's manual. The HMG-CoAR activity assay is based on the spectrophotometric measurement of the decrease in absorbance at 340 nm, which represents the oxidation of NADPH by the catalytic subunit of HMGR in the presence of the substrate of HMG-CoA.
To validate the inhibitory effect of HMG-CoAR activity of compounds 7E1 and 7E2, in vitro HMG-CoAR activity is performed. Commercial HMG-CoAR activity assay kit (Sigma, USA) is used. The HMG-CoAR activity assay is based on the spectrophotometric measurement of the decrease in absorbance at 340 nm, which represents the oxidation of NADPH by the catalytic subunit of HMGR in the presence of the substrate of HMG-CoA. HMG-CoAR inhibitory effect of Pravastatin (Positive control), 7E1 or 7E2 are tested.

Row | Compound | restoration of growth / reduction of inhibitory effect in the presence of mevalonate (compounds from Fraction 7) [1] | growth inhibition in the yeast cells ([1]; 300 μg/ml) [%] | inhibition of HMG-CoAR activity in vitro (HMG-CoAR) | growth inhibition in the yeast cells ([1]; 150 μg/ml) [%]
1 | CC(C)=CCC[C@](C)(O[C@@H]1O[C@H](CO[C@@H]2OC[C@@H](O)[C@H](O)[C@H]2O)[C@@H](O)[C@H](O)[C@H]1O)[C@H]1CC[C@]2(C)[C@@H]1[C@H](O)C[C@@H]1[C@@]3(C)CC[C@H](O[C@@H]4O[C@H](CO)[C@@H](O)[C@H](O)[C@H]4O)C(C)(C)[C@@H]3CC[C@]12C [Compound 7E2, gypenoside IX] | significant reduction of inhibitory effects | 80 | can inhibit the HMG-CoAR activity | –
2 | gypenoside XLV-Ed [Compound 7E1] | significant reduction of inhibitory effects | – | can inhibit the HMG-CoAR activity | 65
